The structures appear in SMILES notation. Where only a bound is given, the exact number is not on record here.

Drawing on US20220009914A1, “Analogs of Nitrofuran Antibiotics to Combat Resistance” (The Trustees of Indiana University, priority 2020, published 2022), this text covers IC50 for 15 molecules.

Test [1] addresses T1, native MDH (Sus scrofa, UniProt P00346).
T1 sequence (P00346 25-338): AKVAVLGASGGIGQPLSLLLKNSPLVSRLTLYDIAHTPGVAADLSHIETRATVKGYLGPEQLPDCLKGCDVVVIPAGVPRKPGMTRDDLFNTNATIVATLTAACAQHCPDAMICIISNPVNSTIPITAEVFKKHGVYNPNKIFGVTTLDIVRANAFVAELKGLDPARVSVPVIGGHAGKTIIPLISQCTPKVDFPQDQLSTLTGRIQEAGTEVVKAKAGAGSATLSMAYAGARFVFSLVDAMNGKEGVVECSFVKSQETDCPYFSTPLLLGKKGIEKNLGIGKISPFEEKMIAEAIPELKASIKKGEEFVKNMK
As to the kind of experiment: native MDH enzymatic activity counter-screen. In kind it is biochemical, pig. The settings on record: without NfsB nitroreductase; compounds added after refolding; read-out: Native MDH Activity IC50. The procedure: Reagent Preparations & Assay Protocol: This assay was performed as described above for the GroEL/ES-dMDH refolding assay; however, the assay protocol differed in the sequence of compound addition to the assay plates. The refolding reactions were allowed to proceed for 45 min at 37° C. in the absence of test compounds (complete refolding of MDH occurs), then quenched with the EDTA stock. Compounds were then pin-transferred into the plates after the EDTA quenching step; thus, compound effects are only possible by inhibiting the fully-refolded MDH reporter substrate. […] A340 nm measurements were recorded at 0.5 minutes (start point) and at successive time points until the amount of NADH consumed reached ˜90% (end point, generally between 20-35 minutes). Compounds were tested in 8-point, 3-fold dilution series (62.5 μM to 29 nM during the reporter reaction) in clear, flat-bottom 384-well microtiter plates. IC50 values for the MDH reporter enzyme were determined as described above. Results presented represent the averages of IC50 values obtained from at least five replicates.
Evaluating analogs for inhibiting GroEL/ES-mediated substrate refolding functions. […] We first evaluated all test compounds in our standard GroEL/ES-mediated refolding assays that employ either malate dehydrogenase (MDH) or rhodanese (Rho) as the denatured substrate reporter enzymes. When denatured, these enzymes are efficiently folded by GroEL/ES in the absence of inhibitors, and thus act as reporters to determine the degree of inhibition against the bacterial chaperonin system. Inhibition was examined in the presence of these two orthogonal substrates in order to support that GroEL/ES inhibitors were on-target. To further support on-target effects against GroEL/ES, we counter-screened for inhibition of the native MDH and Rho enzymatic reporter reactions, where test compounds were added after the denatured MDH and Rho substrate enzymes were completely refolded by GroEL/ES.
In general terms: Counterscreens check selectivity or assay interference.

The target in test [2] is T2, native rhodanese (Bos taurus, UniProt P00586).
T2 sequence (P00586 1-297): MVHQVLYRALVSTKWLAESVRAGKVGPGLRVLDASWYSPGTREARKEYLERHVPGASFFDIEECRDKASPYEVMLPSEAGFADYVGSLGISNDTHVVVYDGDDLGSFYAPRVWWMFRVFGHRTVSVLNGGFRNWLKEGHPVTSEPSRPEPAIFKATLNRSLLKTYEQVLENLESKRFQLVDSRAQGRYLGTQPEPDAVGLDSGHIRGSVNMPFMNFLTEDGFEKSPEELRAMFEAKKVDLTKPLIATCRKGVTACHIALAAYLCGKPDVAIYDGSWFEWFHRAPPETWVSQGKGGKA
Kind of test: native rhodanese enzymatic activity counter-screen. The class given is biochemical. The note with it: compounds added after refolding; read-out: Native Rho Activity IC50. The procedure:
Counter-screening compounds for inhibition of native rhodanese enzymatic activity. Reagent Preparations & Assay Protocol: Reagents were identical to those used in the GroEL/ES-dRho refolding assay described above; however, the assay protocol differed in the sequence of compound addition to the wells. Compounds were pin-transferred after 50 minute incubation for the refolding cycle, but prior to the addition of the thiocyanate enzymatic assay stock. Thus, the refolding reactions were allowed to proceed for 50 min at 37° C. in the absence of test compounds, but the enzymatic activity of the refolded rhodanese reporter enzyme was monitored in the presence of test compounds (inhibitor concentration range during the enzymatic reporter reaction is 100 μM to 46 nM—3-fold dilutions). IC50 values for the rhodanese reporter enzyme were determined as described above. Results presented represent the averages of IC50 values obtained from at least four replicates.
All compounds were counter-screened for inhibiting the enzymatic activity of the native Rho reporter enzyme as per our previously reported procedure. Results presented represent the averages of IC50 values obtained from at least four replicates.

`O=C(N/N=C/c1cccc2ccccc12)c1ccccc1` [Compound 34, N′-(naphthalen-1-ylmethylene)benzohydrazide]: the values for the half-maximal inhibitory concentration (IC50) in test [1] and in test [2] were greater than 63 µM and greater than 100 µM, respectively.
On to `CCOc1ccc(S(=O)(=O)Nc2ccc(C(=O)N/N=C/c3ccc(O)c4ncccc34)cc2)cc1` [Compound 15, 4-ethoxy-N-(4-(2-((8-hydroxyquinolin-5-yl)methylene)hydrazine-1-carbonyl)phenyl)benzenesulfonamide], for which the 50% inhibitory concentration (IC50) was greater than 63 µM in test [1] and greater than 100 µM in test [2].
`COc1ccc(C(=O)N/N=C/c2ccc(O)cc2)cc1` [Compound 35, N′-(4-hydroxybenzylidene)-4-methoxybenzohydrazide]: the IC50 in test [1] is greater than 63 µM; in test [2], greater than 100 µM.
In the case of `O=C(N/N=C/c1ccc(O)c2ncccc12)c1cccs1` [Compound 3, N′-((8-hydroxyquinolin-5-yl)methylene)thiophene-2-carbohydrazide], the values for the concentration for half-maximal inhibition (IC50) in test [1] and in test [2] were greater than 63 µM and 87 µM, respectively.
Consider `O=C(N/N=C/c1ccc(O)c2ncccc12)c1ccncc1` [Compound 6, N′-((8-hydroxyquinolin-5-yl)methylene)isonicotinohydrazide], for which the IC50 in test [1] is greater than 63 µM; in test [2], greater than 100 µM.
The matching figures for `O=Cc1ccc(O)c2ncccc12` [Compound 40, reference compound]: greater than 63 µM and 18 µM.
On to `CCOc1ccc(S(=O)(=O)Nc2ccc(C(=O)N/N=C/c3ccc([N+](=O)[O-])o3)cc2)cc1` [Compound 28, 4-ethoxy-N-(4-(2-((5-nitrofuran-2-yl)methylene)hydrazine-1-carbonyl)phenyl)benzenesulfonamide], for which the IC50 in test [1] is greater than 63 µM; in test [2], 45 µM.
The matching figures for `COc1ccc(C(=O)N/N=C/c2ccco2)cc1` [Compound 39, N′-(furan-2-ylmethylene)-4-methoxybenzohydrazide]: greater than 63 µM and greater than 100 µM.
On to `O=C(N/N=C/c1ccc(O)c2ncccc12)c1ccc(NS(=O)(=O)c2ccc(Br)cc2)cc1` [Compound 14, 4-bromo-N-(4-(2-((8-hydroxyquinolin-5-yl)methylene)hydrazine-1-carbonyl)phenyl)benzenesulfonamide], for which the half-maximal inhibitory concentration (IC50) was greater than 63 µM in test [1] and greater than 100 µM in test [2].
`O=C(N/N=C/c1ccccc1)c1ccccc1` [Compound 38, N′-benzylidenebenzohydrazide]: the concentration for half-maximal inhibition (IC50) was greater than 63 µM in test [1] and greater than 100 µM in test [2].
For `O=C(N/N=C/c1ccc([N+](=O)[O-])o1)c1cccc2ccccc12` [Compound 22, N′-((5-nitrofuran-2-yl)methylene)-1-naphthohydrazide], the half-inhibitory concentration (IC50) is greater than 63 µM in test [1] and 45 µM in test [2].
The matching figures for `O=C1CN(/N=C/c2ccc(O)c3ncccc23)C(=O)N1` [Compound 2, 1-(((8-hydroxyquinolin-5-yl)methylene)amino)imidazolidine-2,4-dione]: greater than 63 µM and greater than 100 µM.
In the case of `COc1ccc(C(=O)NN)cc1` [Compound 42, reference compound], the 50% inhibitory concentration (IC50) was greater than 63 µM in test [1] and greater than 100 µM in test [2].
On to `O=C(N/N=C/c1ccc(O)cc1)c1ccccc1` [Compound 36, N′-(4-hydroxybenzylidene)benzohydrazide], for which the IC50 was greater than 63 µM in test [1] and greater than 100 µM in test [2].
Take `O=C(N/N=C/c1ccc(O)c2ncccc12)c1ccccc1Oc1ccccc1` [Compound 10, N′-((8-hydroxyquinolin-5-yl)methylene)-2-phenoxybenzohydrazide]: the figures for the IC50 in test [1] and in test [2] were greater than 63 µM and 89 µM, respectively.

Broadly, the IC50 is the midpoint of a concentration-inhibition curve.
